Like-named read-outs stand apart in the source and are kept apart here.
Target: human α7 nAChR (Homo sapiens (Human), UniProt P36544)
Experiment: Automated patch-clamp electrophysiology functional assay (Assay A), IonFlux HT
Format: cell-based
Conditions: HEK cell line stably expressing human RIC-3 and human α7, whole-cell population patch, 40 μM acetylcholine
Description: The α7 nAChR positive allosteric modulator (PAM) activity of the present compounds may be tested using assays known in the art. The α7 nAChR PAMs described herein have activities in an automated patch-clamp electrophysiology functional assay as described in the examples. The assay was performed using the IonFlux HT in a whole-cell, population patch configuration. See Golden et al. Assay Drug Dev. Technol. (2011) 9:608-619. The compounds were assessed for their ability to modulate the function of the human α7 nAChR stably expressed in a HEK cell line both in the presence, and in the absence of the natural α7 agonist acetylcholine. By performing a series of such measurements at different concentrations, the effective concentration of the α7 nAChR PAMs (EC50) was determined. See Spencer et al. Assay Drug Dev. Technol. (2012) 10:313-324.
Automated patch-clamp electrophysiology was performed using the IonFlux HT (Fluxion Biosciences Inc., San Francisco, Calif.) in the whole-cell, population patch configuration. Test compounds were assessed for their ability to modulate the function of the α7 nicotinic acetylcholine receptor both in the presence, and in the absence of the natural α7 agonist acetylcholine. A HEK cell line stably expressing both human RIC-3 and human α7 (PrecisION hnAChR α7/RIC-3, Eurofins Pharma, St. Charles, Mo.) was cultured in 175 cm^2 triple-layer tissue culture flasks to no more than 90% confluency in DMEM/F-12 growth media supplemented with 10% heat-inactivated fetal bovine serum, 1% non-essential amino acids, 0.625 μg/mL Puromycin, and 400 μg/mL Geneticin. Immediately prior to assay, cells were detached by first aspirating growth media, rinsing with Dulbecco's phosphate buffered saline, and then adding 10 mL of Accutase (Innovative Cell Technologies, San Diego, Calif.) to the flask and then incubating at 37° C. for 5 minutes. Detached cells were then recovered by the addition of 40 mL of CHO-serum-free media supplemented with 25 mM HEPES, and rocked gently in a 50 mL conical tube for 20 minutes prior to patch-clamp assay. After recovery, cells were pelleted by centrifugation at 1,000 RPM for 1 minute in a compact bench top centrifuge; recovery media was aspirated and cells were resuspended in external recording solution (150 mM NaCl, 5 mM KCl, 2 mM CaCl2, 1 mM MgCl2, 10 mM HEPES, 12 mM dextrose) to a density of 5.0×10^6 cells/mL. The cell suspension was added to the cell inlet wells on an IonFlux HT population patch plate which had previously been rinsed and primed with deionized H2O. Test compounds were serially diluted in DMSO and then resuspended to the final test concentration in external recording solution, with, or without 40 μM acetylcholine added to the external recording solution; test compounds were then transferred to the IonFlux HT population patch plate. Internal recording solution (110 mM TrisPO4, 28 mM TrisBase, 0.1 mM CaCl2, 2 mM MgCl2, 11 mM EGTA, 4 mM MgATP) was added to the internal recording solution inlet wells on the IonFlux HT patch plate previously loaded with cells and test compounds, and the plate loaded into the IonFlux HT instrument. A protocol was executed on the IonFlux HT to trap the cells, break into the cells, and establish the whole-cell recording configuration; cells were voltage-clamped at a holding potential of −60 mV for the duration of the experiment, all experiments were conducted at room temperature, and the IonFlux HT injection pressure was 8 psi for solution applications. Upon establishing the whole-cell configuration, external recording solution was perfused into the recording chambers for 120 seconds and then 40 μM acetylcholine was applied for 1 second and immediately washed off with external recording solution for 60 seconds. The 40 μM acetylcholine-evoked α7 current served as the current response to which subsequent test compound effects, in the presence, or in the absence of 40 μM acetylcholine would be quantified relative to. […]

human α7 nAChR, sequence (P36544 23-502): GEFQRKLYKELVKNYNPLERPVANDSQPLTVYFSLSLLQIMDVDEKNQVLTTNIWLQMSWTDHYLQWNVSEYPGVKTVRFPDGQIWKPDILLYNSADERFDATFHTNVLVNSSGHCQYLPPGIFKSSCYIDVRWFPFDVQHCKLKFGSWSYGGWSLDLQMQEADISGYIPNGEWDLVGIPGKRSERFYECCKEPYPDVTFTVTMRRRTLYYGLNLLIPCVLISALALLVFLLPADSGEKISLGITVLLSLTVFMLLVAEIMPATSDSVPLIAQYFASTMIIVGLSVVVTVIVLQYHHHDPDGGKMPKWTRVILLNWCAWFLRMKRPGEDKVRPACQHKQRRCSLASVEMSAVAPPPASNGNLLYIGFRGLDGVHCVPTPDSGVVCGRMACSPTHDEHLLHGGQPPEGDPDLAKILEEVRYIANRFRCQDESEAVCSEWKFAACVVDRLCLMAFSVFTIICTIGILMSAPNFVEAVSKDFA

Compound	EC50 (read-out: α7 nAChR EC50)	EC50 (read-out: α7 nAChR Potency)
CC(C)(C#N)c1ccc([C@@H]2C[C@H]2c2ccc(S(N)(=O)=O)cc2)cn1 (racemic) [Example G5, 4-{trans-2-[6-(2-Cyanopropan-2-yl)pyridin-3-yl]cyclopropyl}benzenesulfonamide]	3400 nM	500 to 5000 nM
NS(=O)(=O)c1ccc([C@@H]2C[C@H]2c2ccnc(N3CCOCC3)n2)cc1 (relative stereo) [Example 2, 4-{trans-2-[2-(Morpholin-4-yl)pyrimidin-4-yl]cyclopropyl}benzenesulfonamide]	–	500 to 5000 nM
NS(=O)(=O)c1ccc([C@@H]2C[C@H]2c2ccc(N3CCCC3)nc2)cc1 (relative stereo) [Example 6, 4-{trans-2-[6-(Pyrrolidin-1-yl)pyridin-3-yl]cyclopropyl}benzenesulfonamide]	720 nM	500 to 5000 nM
Cc1nc(-c2cccc([C@@H]3C[C@H]3c3ccc(S(N)(=O)=O)cc3)c2)no1 (relative stereo) [Example 7, 4-{trans-2-[3-(5-Methyl-1,2,4-oxadiazol-3-yl)phenyl]cyclopropyl}benzenesulfonamide]	320 nM	100 to 500 nM
CC(C)c1cccc(C2CC2c2ccc(S(N)(=O)=O)cc2)n1 (single isomer, unassigned) [Example 1, 4-{trans-2-[6-(Propan-2-yl)pyridin-2-yl]cyclopropyl}benzenesulfonamide]	500 nM	100 to 500 nM
NS(=O)(=O)c1ccc(C2CC2c2cccc(C3CCCC3)n2)cc1 (single isomer, unassigned) [Example 3, 4-[trans-2-(6-Cyclopentylpyridin-2-yl)cyclopropyl]benzenesulfonamide]	1500 nM	500 to 5000 nM
NS(=O)(=O)c1ccc(C2CC2c2ccc(C3CCCC3)cn2)cc1 (single isomer, unassigned) [Example 4, 4-[trans-2-(5-Cyclopentylpyridin-2-yl)cyclopropyl]benzenesulfonamide]	1000 nM	500 to 5000 nM
CC(C)c1ccnc(C2CC2c2ccc(S(N)(=O)=O)cc2)n1 (single isomer, unassigned) [Example 5, 4-{trans-2-[4-(Propan-2-yl)pyrimidin-2-yl]cyclopropyl}benzenesulfonamide]	410 nM	100 to 500 nM
CC(C)c1cc(C2CC2c2ccc(S(N)(=O)=O)cc2)ccn1 (single isomer, unassigned) [Example 8, 4-{trans-2-[2-(Propan-2-yl)pyridin-4-yl]cyclopropyl}benzenesulfonamide]	1200 nM	500 to 5000 nM
NS(=O)(=O)c1ccc(C2CC2c2nccc(-c3cccc(F)c3)n2)cc1 (single isomer, unassigned) [Example 10, 4-{trans-2-[4-(3-Fluorophenyl)pyrimidin-2-yl]cyclopropyl}benzenesulfonamide]	210 nM	100 to 500 nM
NS(=O)(=O)c1ccc(C2CC2c2nccc(-c3cncc(C(F)(F)F)c3)n2)cc1 (single isomer, unassigned) [Example 11, 4-(trans-2-{4-[5-(Trifluoromethyl)pyridin-3-yl]pyrimidin-2-yl}cyclopropyl)benzenesulfonamide]	240 nM	100 to 500 nM
CC(C)c1cccc(C2CC2c2ccc(S(N)(=O)=O)cc2)n1 (single isomer, unassigned) [Example A1, 4-{trans-2-[6-(Propan-2-yl)pyridin-2-yl]cyclopropyl}benzenesulfonamide]	–	500 to 5000 nM
CC(C)c1ccnc(C2CC2c2ccc(S(N)(=O)=O)cc2)c1 (single isomer, unassigned) [Example A2, 4-{trans-2-[4-(Propan-2-yl)pyridin-2-yl]cyclopropyl}benzenesulfonamide]	410 nM	100 to 500 nM
CC(C)c1ccc(C2CC2c2ccc(S(N)(=O)=O)cc2)nc1 (single isomer, unassigned) [Example A3, 4-{trans-2-[5-(Propan-2-yl)pyridin-2-yl]cyclopropyl}benzenesulfonamide]	550 nM	500 to 5000 nM
NS(=O)(=O)c1ccc([C@@H]2C[C@H]2c2cccc(C3CCCC3)n2)cc1 (single isomer, unassigned) [Example A4, 4-[trans-2-(6-Cyclopentylpyridin-2-yl)cyclopropyl]benzenesulfonamide]	–	500 to 5000 nM
CC(C)c1ccc(C2CC2c2ccc(S(N)(=O)=O)cc2)nc1 (single isomer, unassigned) [Example A5, 4-{trans-2-[5-(Propan-2-yl)pyridin-2-yl]cyclopropyl}benzenesulfonamide]	–	500 to 5000 nM
CC(C)c1cnc(C2CC2c2ccc(S(N)(=O)=O)cc2)nc1 (single isomer, unassigned) [Example C1, 4-{trans-2-[5-(Propan-2-yl)pyrimidin-2-yl]cyclopropyl}benzenesulfonamide]	280 nM	100 to 500 nM
NS(=O)(=O)c1ccc([C@@H]2C[C@H]2c2nccc(-c3cccc(F)c3)n2)cc1 (single isomer, unassigned) [Example C4, 4-{trans-2-[4-(3-fluorophenyl)pyrimidin-2-yl]cyclopropyl}benzenesulfonamide]	1900 nM	500 to 5000 nM
NS(=O)(=O)c1ccc([C@@H]2C[C@H]2c2nccc(-c3cncc(C(F)(F)F)c3)n2)cc1 (single isomer, unassigned) [Example C5, 4-(trans-2-{4-[5-(trifluoromethyl)pyridin-3-yl]pyrimidin-2-yl}cyclopropyl)benzenesulfonamide]	3300 nM	500 to 5000 nM
CC1(C)[C@H](c2ccc(S(N)(=O)=O)cc2)[C@H]1c1nccc(-c2cncc(C(F)(F)F)c2)n1 [Example 9, 4-[(1R,3R)-2,2-Dimethyl-3-{4-[5-(trifluoromethyl)pyridin-3-yl]pyrimidin-2-yl}cyclopropyl]benzenesulfonamide]	1400 nM	500 to 5000 nM
CC(C)c1ccc(C2C(c3ccc(S(N)(=O)=O)cc3)C2[Si](C)(C)C)cn1 (stereo not drawn) [Example B1, 4-{2-[6-(Propan-2-yl)pyridin-3-yl]-3-(trimethylsilyl)cyclopropyl}benzenesulfonamide]	1600 nM	500 to 5000 nM
NS(=O)(=O)c1ccc([C@H]2[C@H](c3nccc(-c4cccc(F)c4)n3)C2(F)F)cc1 [Example C6, 4-{(1R,3R)-2,2-Difluoro-3-[4-(3-fluorophenyl)pyrimidin-2-yl]cyclopropyl}benzenesulfonamide]	1600 nM	500 to 5000 nM
tert-Butyl 4-{4-[trans-2-(4-sulfamoylphenyl)cyclopropyl]pyrimidin-2-yl}piperazine-1-carboxylate [Example D4]	720 nM	500 to 5000 nM
